In EP4660190A1, “PHARMACEUTICALLY ACCEPTABLE SALT OF COMPOUND AND PREPARATION METHOD THEREFOR” (Jiangsu Chia Tai Fenghai Pharmaceutical Co., Ltd., priority 2023, dated 2024):

What was measured:
[1] = test system: Middle cerebral artery occlusion (MCAO) models of SD rats; experiment: Rat MCAO model, single-dose administration, TTC staining infarct size; format: in vivo; settings: 24 h; for Infarct Size (%): Mean±SD
Description: 3: Pharmacodynamic study in Rat Middle Cerebral Artery Occlusion (MCAO) Model (Single-Dose Administration) Middle cerebral artery occlusion (MCAO) models of SD rats were constructed using the suture occlusion method to evaluate the protection effect of the compound on neurons of rats after cerebral ischemia-reperfusion. After anaesthesia induction with 3.0% isoflurane in SD rats (240-270g), the operation was performed, and the right-side neck area was dissected to reveal the right common carotid artery (CCA), external carotid artery (ECA) and internal carotid artery (ICA). The ECA was ligated. The ICA was temporarily occluded. Sutures were threaded at both the proximal end and the distal end of CCA. The distal end was securely ligated, and a loosely tied knot was placed at the proximal end. A small incision was made between the two ligatures on the CCA. A No. 4-0 suture was inserted through the incision of CCA and slowly and gently pushed into the ICA. The threading was halted temporarily when reaching the artery clamp of ICA. The pre-ligation suture was further tightened. The artery clamp blocking the blood flow in the ICA was removed, allowing the suture occlusion to be advanced into the ICA until it entered the intracranial region. […] The insertion was stopped at the moment, and the time was recorded. The artery clamp on the CCA was removed and the incision was closed after no active bleeding was observed. The ischemic rats were placed at room temperature to keep their body temperature at 37°C, and anesthesia induction could be carried out 120min later. The suture was slowly and gradually withdrawn when the rats were maintained under anesthesia, so that the proximal end of the suture returned to the ECA, thereby initiating reperfusion of the middle cerebral artery. Animals were administered for a single dose immediately after reperfusion (within 10min). 3 groups were established, namely a model control group, a Compound (I) i.v. group (30mg/kg), and a Compound (I) p.o. group (60mg/kg). Animals were euthanized 24 h after ischemia reperfusion, and the brains were rapidly taken, frozen, and dissected for TTC staining. The normal tissues were rose-red after staining, and the infarcted tissues were white. The infarct size (%) percentage, calculated as the weight of infarcted tissues to the weight of the whole brain, is used to evaluate the degree of cerebral ischemic injury in rats.

[2] = test system: MPTP-induced Parkinson's disease model mice; experiment: MPTP-induced mouse Parkinson's disease model, pole test; format: in vivo, C57 mice; settings: mean ± SD
[3] = test system: MPTP-induced Parkinson's disease model mice; experiment: MPTP-induced mouse Parkinson's disease model, grip strength test; settings: Before Modeling, mean ± SD
[4] = Hygroscopicity test (Chinese Pharmacopoeia Section 9103); format: physicochemical; settings: 25°C, 80% relative humidity, 24 hours
[5] = test system: TDP-43-A315T transgenic mice of ALS model; experiment: TDP-43-A315T ALS mice, rotarod test; format: in vivo; settings: Mean±SEM
[6] = test system: TDP-43-A315T transgenic mice of ALS model; experiment: TDP-43-A315T ALS mice, muscle tone test; format: in vivo; settings: Mean±SEM
[7] = test system: MPTP-induced Parkinson's disease model mice; experiment: MPTP-induced mouse Parkinson's disease model, striatal dopamine (DOPA) detection; format: in vivo, C57 mice; settings: striatum, four weeks, mean ± SD

## CCC/C(O)=C1/C(=O)Oc2ccccc21 [Compound (I)]
[1]; i.v. 30mg/kg single dose after reperfusion
  Cerebral infarction inhibition rate (%): 37.1%
[1]; i.v. 30mg/kg single dose after reperfusion, 30 mg/kg
  Infarct Size (%): 13.61±3.66 %
[1]; i.v. 30mg/kg single dose after reperfusion, listed as compound (I), 30 mg/kg
  Infarct Size (%): 13.61±3.66%
[1]; p.o. 60mg/kg single dose after reperfusion
  Cerebral infarction inhibition rate (%): 31.2%
[1]; p.o. 60mg/kg single dose after reperfusion, 60 mg/kg
  Infarct Size (%): 14.88±5.11 %
[1]; p.o. 60mg/kg single dose after reperfusion, listed as compound (I), 60 mg/kg
  Infarct Size (%): 14.88±5.11%

## (Z)-3-(1-hydroxybutenyl)benzofuran-2-one tromethamine salt [Example 10]
[2]; high dose 20 mg/kg daily, four weeks, Study Endpoint, listed as Tromethamine salt from Example 10, 20 mg/kg
  Pole test results: 8.83 ± 1.77 s
[2]; high dose 20 mg/kg daily, four weeks, Study Endpoint, listed as tromethamine salt from Example 10, 20 mg/kg
  Pole test results: 8.83 ± 1.77 s
[2]; high dose 20 mg/kg group, Before Modeling
  Pole test results: 9.51 ± 1.66 s
[2]; low dose 5 mg/kg daily, four weeks, Study Endpoint, listed as Tromethamine salt from Example 10, 5 mg/kg
  Pole test results: 9.67 ± 1.48 s
[2]; low dose 5 mg/kg daily, four weeks, Study Endpoint, listed as tromethamine salt from Example 10, 5 mg/kg
  Pole test results: 9.67 ± 1.48 s
[2]; low dose 5 mg/kg group, Before Modeling
  Pole test results: 9.40 ± 1.51 s
[3]; high dose 20 mg/kg group
  Grip Strength Test: 278.44 ± 8.96 g
[3]; low dose 5 mg/kg group
  Grip Strength Test: 276.97 ± 6.40 g
[4]
  hygroscopicity: non-hygroscopic
  weight gain percentage: 0.0%
[5]; female mice, 20mg/kg, Dosing Schedule (weeks) 2
  Rotarod performance: 287.0 ± 8.449 s
[5]; female mice, 20mg/kg, Dosing Schedule (weeks) 4
  Rotarod performance: 288.6 ± 7.796 s
[5]; female mice, 20mg/kg, Dosing Schedule (weeks) 6
  Rotarod performance: 285.4 ± 6.626 s
[5]; female mice, 20mg/kg, Dosing Schedule (weeks) 8
  Rotarod performance: 266.3 ± 14.55 s
[5]; female mice, 20mg/kg, Dosing Schedule (weeks) 10
  Rotarod performance: 254.2 ± 12.62 s
[5]; female mice, 20mg/kg, Dosing Schedule (weeks) 12
  Rotarod performance: 266.2 ± 14.94 s
[5]; female mice, 20mg/kg, Dosing Schedule (weeks) 14
  Rotarod performance: 272.3 ± 10.62 s
[5]; female mice, 20mg/kg, Dosing Schedule (weeks) 16
  Rotarod performance: 267.8 ± 16.51 s
[5]; female mice, 40mg/kg p.o., Dosing Schedule (weeks) 2
  Rotarod performance: 273.6 ± 12.14 s
[5]; female mice, 40mg/kg p.o., Dosing Schedule (weeks) 4
  Rotarod performance: 271.4 ± 10.22 s
[5]; female mice, 40mg/kg p.o., Dosing Schedule (weeks) 6
  Rotarod performance: 269.5 ± 8.270 s
[5]; female mice, 40mg/kg p.o., Dosing Schedule (weeks) 8
  Rotarod performance: 275.6 ± 9.651 s
[5]; female mice, 40mg/kg p.o., Dosing Schedule (weeks) 10
  Rotarod performance: 260.6 ± 12.34 s
[5]; female mice, 40mg/kg p.o., Dosing Schedule (weeks) 12
  Rotarod performance: 270.6 ± 9.446 s
[5]; female mice, 40mg/kg p.o., Dosing Schedule (weeks) 14
  Rotarod performance: 256.3 ± 10.00 s
[5]; female mice, 40mg/kg p.o., Dosing Schedule (weeks) 16
  Rotarod performance: 236.5 ± 15.50 s
[5]; male mice, 40mg/kg p.o., Dosing Schedule (weeks) 6
  Rotarod performance: 272.9 ± 7.148 s
[5]; male mice, 40mg/kg p.o., Dosing Schedule (weeks) 8
  Rotarod performance: 267.5 ± 9.357 s
[5]; male mice, 40mg/kg p.o., Dosing Schedule (weeks) 10
  Rotarod performance: 275.8 ± 10.38 s
[5]; male mice, 40mg/kg p.o., Dosing Schedule (weeks) 11
  Rotarod performance: 224.3 ± 26.08 s
[5]; male mice, 40mg/kg p.o., Dosing Schedule (weeks) 12
  Rotarod performance: 182.1 ± 40.34 s
[5]; male mice, 40mg/kg p.o., Dosing Schedule (weeks) 13
  Rotarod performance: 154.2 ± 30.27 s
[5]; male mice, 60mg/kg p.o., Dosing Schedule (weeks) 6
  Rotarod performance: 295.6 ± 3.322 s
[5]; male mice, 60mg/kg p.o., Dosing Schedule (weeks) 8
  Rotarod performance: 275.1 ± 11.91 s
[5]; male mice, 60mg/kg p.o., Dosing Schedule (weeks) 10
  Rotarod performance: 267.3 ± 10.94 s
[5]; male mice, 60mg/kg p.o., Dosing Schedule (weeks) 11
  Rotarod performance: 263.0 ± 12.54 s
[5]; male mice, 60mg/kg p.o., Dosing Schedule (weeks) 12
  Rotarod performance: 266.3 ± 17.99 s
[5]; male mice, 60mg/kg p.o., Dosing Schedule (weeks) 13
  Rotarod performance: 209.0 ± 31.68 s
[6]; female mice, 20mg/kg, animal age 6 weeks
  Muscle Tone: 165.4 ± 7.815 g
[6]; female mice, 20mg/kg, animal age 8 weeks
  Muscle Tone: 190.2 ± 14.13 g
[6]; female mice, 20mg/kg, animal age 10 weeks
  Muscle Tone: 153.7 ± 8.355 g
[6]; female mice, 20mg/kg, animal age 12 weeks
  Muscle Tone: 159.4 ± 13.21 g
[6]; female mice, 20mg/kg, animal age 13 weeks
  Muscle Tone: 149.8 ± 4.815 g
[6]; female mice, 20mg/kg, animal age 14 weeks
  Muscle Tone: 150.9 ± 6.940 g
[6]; female mice, 20mg/kg, animal age 16 weeks
  Muscle Tone: 159.5 ± 7.125 g
[6]; female mice, 40mg/kg p.o., animal age 6 weeks
  Muscle Tone: 155.8 ± 3.677 g
[6]; female mice, 40mg/kg p.o., animal age 8 weeks
  Muscle Tone: 190.6 ± 10.24 g
[6]; female mice, 40mg/kg p.o., animal age 10 weeks
  Muscle Tone: 147.8 ± 7.822 g
[6]; female mice, 40mg/kg p.o., animal age 12 weeks
  Muscle Tone: 154.3 ± 6.584 g
[6]; female mice, 40mg/kg p.o., animal age 13 weeks
  Muscle Tone: 148.1 ± 4.851 g
[6]; female mice, 40mg/kg p.o., animal age 14 weeks
  Muscle Tone: 161.6 ± 2.816 g
[6]; female mice, 40mg/kg p.o., animal age 16 weeks
  Muscle Tone: 155.2 ± 3.339 g
[6]; male mice, 40mg/kg p.o., animal age 6 weeks
  Muscle Tone: 155.4 ± 6.495 g
[6]; male mice, 40mg/kg p.o., animal age 8 weeks
  Muscle Tone: 170.9 ± 6.777 g
[6]; male mice, 40mg/kg p.o., animal age 10 weeks
  Muscle Tone: 155.6 ± 8.359 g
[6]; male mice, 40mg/kg p.o., animal age 12 weeks
  Muscle Tone: 123.1 ± 18.21 g
[6]; male mice, 40mg/kg p.o., animal age 13 weeks
  Muscle Tone: 120.8 ± 12.91 g
[6]; male mice, 40mg/kg p.o., animal age 14 weeks
  Muscle Tone: 89.72 ± 19.04 g
[6]; male mice, 60mg/kg p.o., animal age 6 weeks
  Muscle Tone: 175.7 ± 7.244 g
[6]; male mice, 60mg/kg p.o., animal age 8 weeks
  Muscle Tone: 177.0 ± 5.555 g
[6]; male mice, 60mg/kg p.o., animal age 10 weeks
  Muscle Tone: 155.93 ± 4.345 g
[6]; male mice, 60mg/kg p.o., animal age 12 weeks
  Muscle Tone: 136.8 ± 16.00 g
[6]; male mice, 60mg/kg p.o., animal age 13 weeks
  Muscle Tone: 149.8 ± 3.710 g
[6]; male mice, 60mg/kg p.o., animal age 14 weeks
  Muscle Tone: 149.8 ± 2.045 g
[7]; high dose 20 mg/kg daily, listed as Tromethamine salt from Example 10, 20 mg/kg
  DOPA: 2731.07 ± 868.18 ng/g
[7]; high dose 20 mg/kg daily, listed as tromethamine salt from Example 10, 20 mg/kg
  DOPA: 2731.07 ± 868.18 ng/g
[7]; low dose 5 mg/kg daily, listed as Tromethamine salt from Example 10, 5 mg/kg
  DOPA: 837.82±372.19^& ng/g
[7]; low dose 5 mg/kg daily, listed as tromethamine salt from Example 10, 5 mg/kg
  DOPA: 837.82 ± 372.19 ng/g
